Structures are written as SMILES. Several values for one entry are separate records, joined by “and”; a condition that tells them apart may be missing. Equal entries are not always repeated.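 Values below derive from 48-hour exposures of cells grown in 96-well plates, with endpoints linearly interpolated between the two concentrations bracketing the appropriate inhibition level. GI50 = concentration required for 50% inhibition of growth. TGI: total growth inhibition.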

One assay relates to OVCAR-4 ovarian. Briefly: NCI anticancer screen, dose series, 48 h.
For the molecule `Oc1cn(-c2ccc(Cl)cc2)nc1-c1n[nH]c(=S)n1C1CCCCC1`, the GI50 is 31.8 µM and the TGI was > 100 µM.
In the case of `COc1ccc(Nc2c3ccccc3nc3occ(Cl)c23)cc1`, the GI50 was 0.73 µM and the TGI is > 86.6 µM.
As for `O=C(/C=C/c1cc(CN2CCOCC2)c(O)c2ncccc12)c1cc(CN2CCOCC2)c(O)c2ncccc12`, the GI50 was 0.0804 µM and the TGI was > 100 µM.
For `[Au+].[Au+].[Au+].[c-]1nccn1Cc1ccccc1.[c-]1nccn1Cc1ccccc1.[c-]1nccn1Cc1ccccc1`, the GI50 was 12.7 µM and the TGI is 44.1 µM.
Turning to `Cn1cc(C2=C(c3cn(CCCCCN)c4ccccc34)C(=O)NC2=O)c2ccccc21`, the GI50 was 12.7 µM and the TGI was > 25 µM.
With `Cc1cc[c-]cc1.Fc1c[c-]c(-c2ccccn2)c(F)c1.[Pt+2].c1ccc(P(C[PH+](c2ccccc2)c2ccccc2)c2ccccc2)cc1`, the GI50 was 2.17 µM and the TGI amounted to 9.4 µM.
`COc1cc2ncn(-c3cc(OCCc4ccccc4)c(C(N)=O)s3)c2cc1OC`: the GI50 is > 25 µM and the TGI is > 25 µM.
Turning to `CCCCC1(CN2CCOCC2)S/C(=N/c2nc(CC(=O)OCC)cs2)NC1=O` (stereo not drawn), the GI50 is 33 µM and the TGI is > 100 µM.

In a further assay the test system is OVCAR-5 ovarian. Description: NCI anticancer screen, dose series, 48 h.
As for `COc1ccc2c(c1)C(C)Cc1c(ncnc1-n1c(C)nc3ccccc31)N2C` (stereo not drawn), the GI50 is 13 µM and the TGI came to 39.8 µM.
Molecule `COc1ccc2[nH]c3c4c(ccc3c2c1)C(=O)C=CC4=O` registered a TGI of 41.5 µM.
On to `COc1cc2c(cc1O)C1Cc3ccc(OC)c(O)c3C(C2)N1C` (stereo not drawn), for which the TGI was > 100 µM.
In the case of `CCOC(=O)CNC(=O)c1ccccc1Nc1ccnc(C(F)(F)F)c1`, the GI50 was > 51.1 µM and the TGI was > 100 µM.
As for `COc1ccc2c(c1)[C@@]13CCCC[C@H]1[C@@H](C2)N(C)CC3=O`, the TGI came to 33.3 µM.
For the molecule `COc1cccc(/C(COc2ccc3c(c2)oc(=O)c2cc(OC)ccc23)=N/O)c1`, the GI50 was > 100 µM and the TGI was > 100 µM.
Take `N=C(N)SCc1cccc(-c2nc3ccccc3c(=O)o2)c1`: the TGI is > 100 µM.
Turning to `COc1cc2c(c(OC)n1)[C@]1(O)[C@H](O)[C@H](CN(C)C)[C@@H](c3ccccc3)[C@]1(c1ccc(C#N)cc1)O2`, the GI50 is 0.0208 µM and 0.0174 µM; the TGI is 0.866 µM and 1.43 µM.
Molecule `C=CCSS/C=C/CS(=O)CC=C` (stereo not drawn) returned a TGI of 98.8 µM.
With `Oc1cn(-c2ccc(Cl)cc2)nc1-c1n[nH]c(=S)n1C1CCCCC1`, the GI50 is 3.05 µM and the TGI is > 100 µM.
With `COc1ccc(Nc2c3ccccc3nc3occ(Cl)c23)cc1`, the GI50 is 0.269 µM and the TGI is > 100 µM.
With `O=C(/C=C/c1cc(CN2CCOCC2)c(O)c2ncccc12)c1cc(CN2CCOCC2)c(O)c2ncccc12`, the GI50 was 0.0585 µM and the TGI was > 100 µM.
Turning to `[Au+].[Au+].[Au+].[c-]1nccn1Cc1ccccc1.[c-]1nccn1Cc1ccccc1.[c-]1nccn1Cc1ccccc1`, the GI50 is 27.8 µM and the TGI was 61.9 µM.
As to `Cn1cc(C2=C(c3cn(CCCCCN)c4ccccc34)C(=O)NC2=O)c2ccccc21`, the GI50 is > 25 µM and the TGI was > 25 µM.
Regarding `Cc1cc[c-]cc1.Fc1c[c-]c(-c2ccccn2)c(F)c1.[Pt+2].c1ccc(P(C[PH+](c2ccccc2)c2ccccc2)c2ccccc2)cc1`, the GI50 was 2.99 µM and the TGI was found to be 11.9 µM.
Regarding `COc1cc2ncn(-c3cc(OCCc4ccccc4)c(C(N)=O)s3)c2cc1OC`, the GI50 was > 25 µM and the TGI is > 25 µM.
On to `CCCCC1(CN2CCOCC2)S/C(=N/c2nc(CC(=O)OCC)cs2)NC1=O` (stereo not drawn), for which the GI50 was 35.4 µM and the TGI is > 100 µM.

For the next assay, the system named is SK-OV-3 ovarian. Description: NCI anticancer screen, dose series, 48 h.
`COc1ccc2c(c1)C(C)Cc1c(ncnc1-n1c(C)nc3ccccc31)N2C` (stereo not drawn): the GI50 was 3.53 µM and the TGI amounted to 18.5 µM.
For the molecule `COc1ccc2[nH]c3c4c(ccc3c2c1)C(=O)C=CC4=O`, the TGI is > 100 µM.
For `COc1cc2c(cc1O)C1Cc3ccc(OC)c(O)c3C(C2)N1C` (stereo not drawn), the TGI was > 100 µM.
In the case of `CCOC(=O)CNC(=O)c1ccccc1Nc1ccnc(C(F)(F)F)c1`, the GI50 is > 59.5 µM and the TGI was > 100 µM.
As to `COc1ccc2c(c1)[C@@]13CCCC[C@H]1[C@@H](C2)N(C)CC3=O`, the TGI turned out to be 53.9 µM.
With `COc1cccc(/C(COc2ccc3c(c2)oc(=O)c2cc(OC)ccc23)=N/O)c1`, the GI50 was 66.1 µM and the TGI was > 100 µM.
On to `N=C(N)SCc1cccc(-c2nc3ccccc3c(=O)o2)c1`, for which the TGI was > 100 µM.
With `COc1cc2c(c(OC)n1)[C@]1(O)[C@H](O)[C@H](CN(C)C)[C@@H](c3ccccc3)[C@]1(c1ccc(C#N)cc1)O2`, the GI50 was 0.0481 µM and 0.0284 µM; the TGI was 7.95 µM and 2.1 µM.
Regarding `C=CCSS/C=C/CS(=O)CC=C` (stereo not drawn), the TGI is > 100 µM.
For the molecule `Oc1cn(-c2ccc(Cl)cc2)nc1-c1n[nH]c(=S)n1C1CCCCC1`, the GI50 is 0.451 µM and the TGI was > 44.5 µM.
Turning to `COc1ccc(Nc2c3ccccc3nc3occ(Cl)c23)cc1`, the GI50 was 0.765 µM.
As to `O=C(/C=C/c1cc(CN2CCOCC2)c(O)c2ncccc12)c1cc(CN2CCOCC2)c(O)c2ncccc12`, the GI50 is 0.0348 µM and the TGI was found to be 0.357 µM.
In the case of `[Au+].[Au+].[Au+].[c-]1nccn1Cc1ccccc1.[c-]1nccn1Cc1ccccc1.[c-]1nccn1Cc1ccccc1`, the GI50 is 19.4 µM and the TGI was determined as 36.8 µM.
On to `Cn1cc(C2=C(c3cn(CCCCCN)c4ccccc34)C(=O)NC2=O)c2ccccc21`, for which the GI50 is 10.9 µM and the TGI was > 25 µM.
On to `Cc1cc[c-]cc1.Fc1c[c-]c(-c2ccccn2)c(F)c1.[Pt+2].c1ccc(P(C[PH+](c2ccccc2)c2ccccc2)c2ccccc2)cc1`, for which the GI50 is 2.77 µM and the TGI was 7.79 µM.
The matching figures for `COc1cc2ncn(-c3cc(OCCc4ccccc4)c(C(N)=O)s3)c2cc1OC`: > 25 µM and > 25 µM.
As for `CCCCC1(CN2CCOCC2)S/C(=N/c2nc(CC(=O)OCC)cs2)NC1=O` (stereo not drawn), the GI50 is 25.9 µM and the TGI is > 100 µM.

The record behind these values is PubChem BioAssay (NCI).
